Assay results as given in patent US5869489A, “Trypthophan ureas as neurokinnin antagonists” (Merck & Co., Inc., priority 1997, dated 1999).

Tests used:
human NK2 receptor = biological target: T1, human NK2 receptor (Homo sapiens, UniProt P21452); experiment: Binding assay of NK2 receptor expressed in COS or CHO cells, displacement of 125I-NKA (Table 1, hNK2); conditions: human NK2 receptor, 125I-NKA ligand; read-out: hNK2 (IC50 nM)
T1 construct: expressed in transfected cells
T1 sequence (P21452 1-398): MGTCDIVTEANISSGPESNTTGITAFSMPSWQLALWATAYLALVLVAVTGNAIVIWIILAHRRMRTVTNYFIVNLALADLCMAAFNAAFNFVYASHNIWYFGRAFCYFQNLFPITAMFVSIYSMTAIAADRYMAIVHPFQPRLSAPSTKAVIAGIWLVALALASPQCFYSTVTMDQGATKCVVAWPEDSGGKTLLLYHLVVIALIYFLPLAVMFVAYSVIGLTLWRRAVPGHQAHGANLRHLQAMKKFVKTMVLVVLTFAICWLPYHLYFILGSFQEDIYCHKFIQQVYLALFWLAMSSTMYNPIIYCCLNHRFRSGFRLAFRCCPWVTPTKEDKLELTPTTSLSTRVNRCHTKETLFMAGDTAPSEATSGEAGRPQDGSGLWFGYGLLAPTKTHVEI
Description: (§1) A. Receptor Expression in COS
(§2) To express the cloned human neurokinin-1 receptor (NK 1R) transiently in COS, the cDNA for the human NK 1R was cloned into the expression vector pCDM9 which was derived from pCDM 8 (INVITROGEN) by inserting the ampicillin resistance gene (nucleotide 1973 to 2964 from BLUESCRIPT SK+) into the Sac II site. Transfection of 20 μg of the plasmid DNA into 10 million COS cells was achieved by electroporation in 800 μl of transfection buffer (135 mM NaCl, 1.2 mM CaCl2, 1.2 mM MgCl2, 2.4 mM K2 HPO4, 0.6 mM KH2 PO4, 10 mM glucose, 10 mM HEPES pH 7.4) at 260 V and 950 uF using the IBI GENEZAPPER (IBI, New Haven, Conn.). The cells were incubated in 10% fetal calf serum, 2 mM glutamine, 100 U/ml penicillin-streptomycin, and 90% DMEM media (GIBCO, Grand Island, N.Y.) in 5% CO2 at 37° C. for three days before the binding assay. Similar methods were used to express the NK2 receptor.
(§3) B. Stable Expression in CHO
(§4) To establish a stable cell line expressing the cloned human NK1R, the cDNA was subcloned into the vector pRcCMV (INVITROGEN). Transfection of 20 μg of the plasmid DNA into CHO cells was achieved by electroporation in 800 μl of transfection buffer suplemented with 0.625 mg/ml Herring sperm DNA at 300 V and 950 uF using the IBI GENEZAPPER (IBI). The transfected cells were incubated in CHO media (10% fetal calf serum, 100 U/ml pennicilin-streptomycin, 2 mM glutamine, 1/500 hypoxanthine-thymidine(ATCC), 90% IMDM media (JRH BIOSCIENCES, Lenexa, Kans.), 0.7 mg/ml G418 (GIBCO)) in 5% CO2 at 37° C. until colonies were visible. Each colony was separated and propagated. The cell clone with the highest number of human NK1R was selected for subsequent applications such as drug screening. Similar methods were used to express the human NK2 receptor.
(§5) C. Assay Protocol using COS or CHO The binding assay of human NK1R expressed in either COS or CHO cells is based on the use of ^125 I-substance P (^125 I-SP, from DU PONT, Boston, Mass.) as a radioactively labeled ligand which competes with unlabeled substance P or any other ligand for binding to the human NK1R. […] In the binding assay, 500 μl of cells were added to a tube containing 20 μl of 1.5 to 0.25 nM of ^125 I-SP and 5 μl of unlabeled substance P or any other test compound in DMSO. The tubes were incubated at 4° C. or at room temperature for 1 hour with gentle shaking. The bound radioactivity was separated from unbound radioactivity by GF/C filter (BRANDEL, Gaithersburg, Md.) which was pre-wetted with 0.1% polyethylenimine. The filter was washed with 3 ml of wash buffer (50 mM Tris pH 7.5, 5 mM MnCl2, 150 mM NaCl) three times and its radioactivity was determined by gamma counter. A similar assay was used for NK2 except ^125 I-NKA was used as the ligand.

human NK1R = biological target: T2, human NK1R (Homo sapiens, UniProt P25103); experiment: Binding assay of human NK1R expressed in COS or CHO cells, displacement of 125I-substance P (Table 1, hNK1); conditions: human NK1 receptor, 125I-substance P ligand; read-out: hNK1 (IC50 nM)
T2 construct: expressed in transfected cells
T2 sequence (P25103 whole entry): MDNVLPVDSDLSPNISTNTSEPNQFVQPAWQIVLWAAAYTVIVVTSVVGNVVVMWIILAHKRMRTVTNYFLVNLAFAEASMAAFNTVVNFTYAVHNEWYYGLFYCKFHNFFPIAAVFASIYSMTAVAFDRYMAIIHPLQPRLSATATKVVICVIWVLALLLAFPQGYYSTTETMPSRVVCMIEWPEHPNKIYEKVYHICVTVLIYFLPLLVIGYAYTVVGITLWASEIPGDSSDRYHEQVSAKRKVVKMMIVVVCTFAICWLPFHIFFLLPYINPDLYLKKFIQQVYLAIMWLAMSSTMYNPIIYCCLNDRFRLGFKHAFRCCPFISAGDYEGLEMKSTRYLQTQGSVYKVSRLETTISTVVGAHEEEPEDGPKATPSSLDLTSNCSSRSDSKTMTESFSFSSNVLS
Description: as §1, §2, §3, §4, §5

IC50 (human NK2 receptor) [nM] | IC50 (human NK1R) [nM] | Compound
250 | 750 | CN(Cc1ccccc1)C(=O)[C@@H](Cc1c[nH]c2ccccc12)NC(=O)N1CCC(c2ccccc2)CC1 [Example 33]
> 300 | 3 | Cc1cc(C)cc(CN(C)C(=O)[C@H](Cc2c[nH]c3ccccc23)NC(=O)N2CCC3(CC2)CN(S(C)(=O)=O)c2ccccc23)c1 [Example 28, N-(3,5-Dimethylphenyl)methyl-N-methyl-2-(S)-((1-methanesulfonyl-spiroindoline-3,4'-piperidino)-carbonyl-amino)-3-(3-indolyl)propionamide]
180 | 1 | CN(Cc1cc(Cl)cc(Cl)c1)C(=O)[C@H](Cc1c[nH]c2ccccc12)NC(=O)N1CCC2(CC1)CN(S(C)(=O)=O)c1ccccc12 [Example 27, N-(3,5-Dichlorophenyl)methyl-N-methyl-2-(S)-((1-methanesulfonyl-spiroindoline-3,4'-piperidino)-carbonyl-amino)-3-(3-indolyl)propionamide]
15 | 30 | Cc1ccccc1N1CCN(C(=O)N[C@@H](Cc2c[nH]c3ccccc23)C(=O)N(C)Cc2ccccc2)CC1 [Example 13, N-Benzyl-N-methyl-2-(S)-((4-(2-methylphenyl)piperazino)-carbonyl-amino)-3-(3-indolyl)propionamide]
25 | 90 | CN(Cc1ccccc1)C(=O)[C@H](Cc1c[nH]c2ccccc12)NC(=O)N1CCC(Cc2ccccc2)CC1 [Example 8, N-Benzyl-N-methyl-2-(S)-((4-benzylpiperidino)-carbonyl-amino)-3-(3-indolyl)propionamide]
200 | 100 | Cc1ccc(CNC(=O)[C@H](Cc2c[nH]c3ccccc23)NC(=O)N2CCC3(CCc4ccccc43)CC2)cc1 [Example 18, N-(4-Methylbenzyl)-2-(S)-((spiroindane-1,4'-piperidino)-carbonyl-amino)-3-(3-indolyl)propionamide]

The next lines start with the compound.

Compound | IC50 (human NK2 receptor) [nM] | IC50 (human NK1R) [nM]
CN(Cc1ccccc1)C(=O)[C@H](Cc1c[nH]c2ccccc12)NC(=O)N1CCC2(C=Cc3ccccc32)CC1 [Example 1, N-Benzyl-N-methyl-2-(S)-((spiro-1H-indene-1,4'-piperidino)-carbonyl-amino)-3-(3-indolyl)propionamide] | 10 | 40
CN(Cc1ccccc1)C(=O)[C@H](COCc1ccccc1)NC(=O)N1CCC2(CC1)CN(S(C)(=O)=O)c1ccccc12 [Example 35, N-Benzyl-N-methyl-2-(S)-((1-methanesulfonyl-spiroindoline-1,4'-piperidino)-carbonyl-amino)-3-benzyloxypropionamide] | 60 | 300
CN(Cc1ccccc1)C(=O)[C@@H](Cc1c[nH]c2ccccc12)NC(=O)N1CCC2(C=Cc3ccccc32)CC1 [Example 31, N-Benzyl-N-methyl-2-(R)-((spiro-1H-indene-1,4'-piperidino)-carbonyl-amino)-3-(3-indolyl)propionamide] | 130 | 600
Cc1ccccc1CNC(=O)[C@H](Cc1c[nH]c2ccccc12)NC(=O)N1CCC2(CCc3ccccc32)CC1 [Example 16, N-(2-Methylbenzyl)-2-(S)-((spiroindane-1,4'-piperidino)-carbonyl-amino)-3-(3-indolyl)propionamide] | 15 | 100
N-(1(S)-Phenylpropyl)-N-methyl-2(S)-((spiroindane-1,4'-piperidino)-carbonyl-amino)-3-(3-indolyl)propionamide [Example 23] | 30 | 650
N-(1(S)-phenyl)ethyl-N-methyl-2-(S)-((1-methanesulfonyl-spiroindoline-3,4'- piperidino)-carbonyl-amino)-3-(3-indolyl)propionamide [Example 30] | 70 | 10
CN(Cc1ccccc1)C(=O)[C@H](CCc1ccccc1)NC(=O)N1CCC2(CC1)CN(S(C)(=O)=O)c1ccccc12 [Example 34, N-Benzyl-N-methyl-2-(S)-((1-methanesulfonyl-spiroindoline-3,4'-piperidino)-carbonyl-amino)-4-phenylbutyramide] | 60 | 400
Cc1cccc(CNC(=O)[C@H](Cc2c[nH]c3ccccc23)NC(=O)N2CCC3(CCc4ccccc43)CC2)c1 [Example 17, N-(3-Methylbenzyl)-2-(S)-((spiroindane-1,4'-piperidino)-carbonyl-amino)-3-(3-indolyl)propionamide] | 65 | 60
